# Test: Volume-based 50% particle diameter (D50) of raw materials by laser diffractometry
# Assay type: physicochemical
# Conditions: raw material
# Experimental: 0.7 g of magnesium oxide was placed in a beaker with 70 mL of 0.2% sodium hexametaphosphate solution, and the mixture was subjected to dispersion treatment (3 minutes) using an ultrasonic homogenizer (Nippon Seiki, US-300). The volume-based 50% particle size (D50) of the magnesium oxide was then measured using a laser diffraction scattering particle size analyzer (Nikkiso, Microtrac).
smiles,measurement,value
[O]=[Mg] [Magnesium oxide],volume-based 50% particle size (D50),6.5 μm

# From patent US12053549B2, “Laxative tablet” (SETOLAS Holdings, Inc., priority 2018, dated 2024)
